From paper PMC3463587, “A Series of Beta-Carboline Derivatives Inhibit the Kinase Activity of PLKs” (PLoS ONE, 2012)

Legend:
MRC5 cells [1] = assay: FITC-Annexin V/PI apoptosis assay, MRC5; format: cell-based, Human; details: 48 hr
Source text: Staining with Annexin V–FITC and propidium iodide (PI) is commonly used to distinguish apoptotic, necrotic, and dead cells. PI is impermeant to live cells and apoptotic cells at early stages, but it stains dead cells and apoptotic cells at late stages through its binding to the nucleic acids. Apoptotic cells in early or late stages are stained positively for Annexin V-FITC that binds to phosphotidylserine. We used FACS analysis to determine the proportion of HeLa cells positive for Annexin V-FITC (FITC), PI, or both. The HeLa cells with PI^−/PI^+ FITC^+ were counted as apoptotic cells (Figure 5). […] However, 16.19% (3.96+12.23) of HeLa cells became FITC positive after treatment with 1.05 µM DH281 for 48 hr. The treatment with 5.25 µM DH281 induced apoptosis among 89.6% (89.51+0.09) of HeLa cells (Table 5). […] In contrast to HeLa cells, the induction of apoptosis by DH281 was much less efficient in non-cancer MRC5 cells (Table 5). Therefore, we conclude that the treatment with compounds DH281, DH285 and DH287 induces substantial apoptosis in HeLa cells, but non-cancer MRC5 cells are much less sensitive to the treatment. The distinct apoptotic responses of HeLa and MRC5 cells to beta-carboline compounds could explain the selectivity of PLK1 inhibitors toward cancer cells.
HeLa cells were either treated with 0, 0.21, 1.05 and 5.25 µM of DH281, DH285 and DH287 for 48 hr, or treated with 1.21 µM compounds for 24, 48 and 72 hr, while MRC5 cells were exposed to compounds at 0, 0.21, 1.05, and 5.25 µM for 48 hr. The cultured cells were harvested, washed three times with PBS, and resuspended in 500 µl binding buffer (10 mM Hepes/sodium hydroxide (pH7.4), 140 mM sodium chloride, and 2.5 mM CaCl2). Then 5 µl FITC-labeled Annexin V (Zhongshan JinQiao Biotechnology Ltd., Beijing) was added and the cells were incubated in the dark for 10 min. We added 5 µl of propidium iodide (PI) (10 µg/ml in binding buffer) to each sample before flow cytometry analysis.

[2] = test system: Wee1 protein levels in HeLa cells; assay: Wee1 protein level (Western blotting); format: cell-based, human; details: 1.21 µM, 24 hr, compared to control cells
Protocol: As the inhibitory kinase for cyclin-dependent kinase (CDK), Wee1 is one of the substrates of PLK1 and this phosphorylation stimulates Wee1 degradation. We expect that the inhibition of PLK1 impairs the phosphorylation of Wee1, thereby resulting in elevated Wee1 protein levels. To test this possibility, we examined the protein levels of Wee1 in HeLa cells after treatment with 1.21 µM beta-carboline compounds for 24 hr. […] PLK1 also phosphorylates cyclin B1 and this phosphorylation promotes the nuclear localization of cyclin B1 [36]. After treatment with these beta-carboline compounds, a slight increase of cyclin B1 protein was observed (Figure 6B), and this increase could be a consequence of accumulation of cells in G2/M phase. However, the change of cyclin B1 levels is much less significant compared to the increase of Wee1 levels after treatment with these compounds.
HeLa cells were incubated with or without 1.21 µM DH281, DH285 and DH287 for 24 hr. The cells were washed twice with cold 1×PBS and lysed in RAPI buffer (Applygen technologies Inc.) for 30 min and centrifuged at 14,000 rpm for 20 min at 4°C. We separated 15 µl of total protein (1 µg/ µl) with 12% SDS-PAGE gels and transferred the proteins to PVDF membrane. […] The protein bands were detected using ECL System (Piscataway, New Jersey, USA). […]

CDK2/cyclinE(h) = CDK2/cyclinE(h) (Homo sapiens, UniProt P24941); assay: In vitro kinase assay CDK2/cyclinE (33P-ATP); format: biochemical
Protocol: (§1) The inhibition of PLK1 kinase activity was assessed using the Cyclex PLK1 Assay/Inhibitor Screening Kit (MBL International Corporation, Japan). The kit includes anti-phospho-threonine polyclonal antibody (PPT-07) and peroxidase coupled anti-rabbit IgG antibody as a reporter in a 96-well ELSIA format. Compounds were used at the concentrations from 10^− ^3 to 10^2 µg/ml and the absorbance was determined at 450 nm. A similar protocol was used to determine the kinase inhibition for PLK2, PLK3, Aurora A and Aurora B. The kinase activity of CDK1/cyclinB and CDK2/cyclinE was analyzed in the presence of serially diluted inhibitors. For each reaction, 20 ng of recombinant kinase was used and […] casein from bovine milk (Sigma) was added as the kinase substrate. The kinase reaction buffer contains 8 mM MOPS pH7.0, 0.2 mM EDTA, 0.1 mg/ml histone H1, 10 mM and MgAcetace and [γ^− ^33P-ATP] (500 cpm/pmol). The reaction was initiated by adding the MgATP mix. After incubation for 40 minutes at room temperature, the reaction was stopped by the addition of 3% phosphoric acid solution. We spotted 10 µl of the reaction mixture onto a P30 filtermat and washed three times for 5 min with 75 mM phosphoric acid and once with methanol prior to drying and scintillation counting.

MG63 cells = assay: MTT cell proliferation assay, MG63; format: cell-based; details: Homo sapiens, MG-63, 48 hr
Source text: BI2536 was purchased from Selleck (Selleck, USA).

Aurora-B = Aurora-B (Homo sapiens, UniProt Q96GD4); assay: In vitro kinase assay Aurora B; format: biochemical
Aurora-B, sequence (Q96GD4 whole entry): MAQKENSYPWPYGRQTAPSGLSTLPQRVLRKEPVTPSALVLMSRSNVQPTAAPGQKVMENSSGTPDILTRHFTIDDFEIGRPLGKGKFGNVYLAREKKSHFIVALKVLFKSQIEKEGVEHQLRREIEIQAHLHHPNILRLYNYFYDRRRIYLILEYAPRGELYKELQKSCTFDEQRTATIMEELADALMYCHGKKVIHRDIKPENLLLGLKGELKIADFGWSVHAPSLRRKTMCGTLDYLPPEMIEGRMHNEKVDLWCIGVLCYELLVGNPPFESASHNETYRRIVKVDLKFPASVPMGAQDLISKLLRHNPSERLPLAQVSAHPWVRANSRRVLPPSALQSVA
Protocol: as §1

MRC5 cells [3] = details: read-out: IC50 MRC5; MTT, 48 hr, non-cancer cells
Protocol: All the beta-carboline derivatives were provided by Xinjiang Huashidan Pharmaceutical Co. Ltd. The culture media and fetal bovine serum (FBS) were purchased from Hyclone (Hyclone Laboratories Inc., USA). […] All the cell lines were obtained from the Cell Culture Centre, Institute of Basic Medical Science, Chinese Academy of Medical Science and incubated at 37°C supplied with 5% CO2. HeLa cells were grown in standard DMEM with 10% FBS.
MRC5, HeLa, HepG2, PC3 and MG63 cells were seeded at 3000–6000 cells/well (200 µl/well) in a 96-well plate and incubated overnight. Then different concentrations of compounds were added into the cell cultures with a final concentration of 0.1% DMSO and incubated for an additional 48 hr. After that, 22 µl MTT solution (5 mg/ml) was added into each well and incubated at 37°C for 4 hr.

SMILES	PI+ FITC+ (late apoptotic cells) (MRC5 cells [1]; MRC5, 0.21 µM) [%]	PI+ FITC− (dead cells) (MRC5 cells [1]; MRC5, 0.21 µM) [%]	PI− FITC− (live cells) (MRC5 cells [1]; MRC5, 0.21 µM) [%]	PI+ FITC+ (late apoptotic cells) (MRC5 cells [1]; MRC5, 1.05 µM) [%]	PI+ FITC− (dead cells) (MRC5 cells [1]; MRC5, 1.05 µM) [%]	PI− FITC+ (early apoptotic cells) (MRC5 cells [1]; MRC5, 1.05 µM) [%]	PI− FITC− (live cells) (MRC5 cells [1]; MRC5, 1.05 µM) [%]	PI+ FITC+ (late apoptotic cells) (MRC5 cells [1]; MRC5, 5.25 µM) [%]	PI+ FITC− (dead cells) (MRC5 cells [1]; MRC5, 5.25 µM) [%]	PI− FITC+ (early apoptotic cells) (MRC5 cells [1]; MRC5, 5.25 µM) [%]	PI− FITC− (live cells) (MRC5 cells [1]; MRC5, 5.25 µM) [%]	Wee1 protein level [2]	IC50 (CDK2/cyclinE(h)) [µM]	IC50 (MG63 cells) [µM]	IC50 (Aurora-B) [µM]	IC50 (MRC5 cells [3]) [µM]
Cc1c2c(cc[n+]1Cc1ccccc1)c1ccc(OCc3ccc(F)cc3)cc1n2CCCc1ccccc1 [DH281]	5.07	1.63	92.4	0.59	0.01	13.3	86.1	7.76	10.5	18.5	63.2	high levels of Wee1 protein	> 100	1.6 ± 0.15		
Cc1c2c(cc[n+]1Cc1ccccc1)c1ccc(OCc3ccccc3)cc1n2Cc1ccccc1 [DH287]												high levels of Wee1 protein	> 100	1.79 ± 0.29	24.7	3.06 ± 0.69
